In ChEMBL document CHEMBL5465560, “Selectivity Literature for EUbOPEN Chemogenomic Library” (2024):

What was measured:
[1] = target: T1, Tyrosine-protein kinase ABL2 (Homo sapiens, UniProt P42684); assay: Selectivity interaction (KinomeScan (DiscoverX)) EUB0000666a ABL2; conditions: at 10 µM
[2] = target: T1, Tyrosine-protein kinase ABL2; assay: Selectivity interaction (KinomeScan (DiscoverX)) EUB0001079a ABL2; conditions: at 1 µM
[3] = target: Mitogen-activated protein kinase kinase kinase 8 (Homo sapiens, UniProt P41279); assay: Selectivity interaction (Kinase panel (Invitrogen)) EUB0000639a MAP3K8; conditions: at 200 nM
[4] = target: Mitogen-activated protein kinase kinase kinase kinase 5 (Homo sapiens) (UniProt Q9Y4K4); assay: Selectivity interaction (Kinase panel (Invitrogen)) EUB0000639a MAP4K5; conditions: at 200 nM
[5] = target: T2, Activin receptor type-1 (Homo sapiens) (UniProt Q04771); assay: Selectivity interaction (Kinase panel (Invitrogen)) EUB0000639a ACVR1; conditions: at 200 nM
T2 sequence (whole entry): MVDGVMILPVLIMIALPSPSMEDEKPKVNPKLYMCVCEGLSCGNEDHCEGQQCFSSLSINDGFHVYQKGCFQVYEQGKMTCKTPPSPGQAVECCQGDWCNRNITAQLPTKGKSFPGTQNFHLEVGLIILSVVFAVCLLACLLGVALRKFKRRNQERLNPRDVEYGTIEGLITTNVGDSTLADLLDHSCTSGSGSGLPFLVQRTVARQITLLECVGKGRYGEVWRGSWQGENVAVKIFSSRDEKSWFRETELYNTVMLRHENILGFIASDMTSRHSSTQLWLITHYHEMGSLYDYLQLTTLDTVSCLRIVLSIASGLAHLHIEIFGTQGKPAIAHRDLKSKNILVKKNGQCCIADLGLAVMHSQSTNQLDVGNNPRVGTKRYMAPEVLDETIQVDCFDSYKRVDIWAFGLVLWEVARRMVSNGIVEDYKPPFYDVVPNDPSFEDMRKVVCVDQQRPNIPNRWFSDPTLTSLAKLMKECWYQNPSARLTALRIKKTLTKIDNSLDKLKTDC

[6] = target: TGF-beta receptor type-2 (Homo sapiens) (UniProt P37173); assay: Selectivity interaction (KinomeScan (DiscoverX)) EUB0000618a TGFBR2; conditions: at 10 µM
[7] = target: T3, Inhibitor of nuclear factor kappa-B kinase subunit beta (Homo sapiens) (UniProt O14920); conditions: at 10 µM
T3 sequence (whole entry): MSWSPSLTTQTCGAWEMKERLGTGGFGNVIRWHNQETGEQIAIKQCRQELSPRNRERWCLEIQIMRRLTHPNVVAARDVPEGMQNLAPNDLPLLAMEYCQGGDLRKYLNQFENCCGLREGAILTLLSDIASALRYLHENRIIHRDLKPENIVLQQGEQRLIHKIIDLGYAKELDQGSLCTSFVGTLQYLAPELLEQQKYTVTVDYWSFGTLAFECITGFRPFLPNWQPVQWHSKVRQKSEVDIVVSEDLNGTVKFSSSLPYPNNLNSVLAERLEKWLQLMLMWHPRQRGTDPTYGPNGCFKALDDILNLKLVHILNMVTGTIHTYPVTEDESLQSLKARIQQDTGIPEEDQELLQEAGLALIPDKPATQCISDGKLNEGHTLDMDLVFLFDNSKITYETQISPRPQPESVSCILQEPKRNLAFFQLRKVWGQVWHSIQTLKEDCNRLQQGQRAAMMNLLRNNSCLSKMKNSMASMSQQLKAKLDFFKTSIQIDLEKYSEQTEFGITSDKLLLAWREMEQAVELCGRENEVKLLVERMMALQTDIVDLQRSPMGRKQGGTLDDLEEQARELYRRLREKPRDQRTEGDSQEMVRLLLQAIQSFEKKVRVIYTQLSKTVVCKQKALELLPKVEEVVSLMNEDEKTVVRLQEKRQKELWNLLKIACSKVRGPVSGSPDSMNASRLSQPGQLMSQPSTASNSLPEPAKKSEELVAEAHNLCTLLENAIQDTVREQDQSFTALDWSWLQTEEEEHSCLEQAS

[8] = target: T4, Serine/threonine-protein kinase DCLK1 (Homo sapiens) (UniProt O15075); assay: Selectivity interaction (Kinase panel (Z-LYTE Assay)) EUB0001632a DCLK1; conditions: at 10 µM
T4 sequence (whole entry): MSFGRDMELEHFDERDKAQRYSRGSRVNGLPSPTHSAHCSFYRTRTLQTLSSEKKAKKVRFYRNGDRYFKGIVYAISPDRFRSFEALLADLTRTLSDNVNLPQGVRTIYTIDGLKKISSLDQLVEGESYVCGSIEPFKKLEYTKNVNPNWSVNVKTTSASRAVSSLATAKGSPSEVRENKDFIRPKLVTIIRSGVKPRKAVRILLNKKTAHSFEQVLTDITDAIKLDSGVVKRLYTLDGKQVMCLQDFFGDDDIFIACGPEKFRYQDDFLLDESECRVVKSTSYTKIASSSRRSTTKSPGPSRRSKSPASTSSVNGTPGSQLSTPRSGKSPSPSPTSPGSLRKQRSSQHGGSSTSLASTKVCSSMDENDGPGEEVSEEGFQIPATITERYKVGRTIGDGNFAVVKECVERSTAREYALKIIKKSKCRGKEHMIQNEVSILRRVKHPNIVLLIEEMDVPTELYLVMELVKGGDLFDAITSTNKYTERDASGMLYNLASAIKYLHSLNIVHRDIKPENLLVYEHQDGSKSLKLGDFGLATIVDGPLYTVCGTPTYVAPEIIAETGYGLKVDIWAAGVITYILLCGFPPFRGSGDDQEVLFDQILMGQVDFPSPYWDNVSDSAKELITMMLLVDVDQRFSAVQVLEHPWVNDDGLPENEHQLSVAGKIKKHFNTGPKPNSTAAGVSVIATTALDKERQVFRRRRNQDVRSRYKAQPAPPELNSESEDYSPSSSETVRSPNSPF

[9] = target: SRSF protein kinase 3 (Homo sapiens) (UniProt Q9UPE1); assay: Selectivity interaction (ProQinase) EUB0000171b SRPK3
SRSF protein kinase 3 (Homo sapiens), sequence (Q9UPE1 whole entry): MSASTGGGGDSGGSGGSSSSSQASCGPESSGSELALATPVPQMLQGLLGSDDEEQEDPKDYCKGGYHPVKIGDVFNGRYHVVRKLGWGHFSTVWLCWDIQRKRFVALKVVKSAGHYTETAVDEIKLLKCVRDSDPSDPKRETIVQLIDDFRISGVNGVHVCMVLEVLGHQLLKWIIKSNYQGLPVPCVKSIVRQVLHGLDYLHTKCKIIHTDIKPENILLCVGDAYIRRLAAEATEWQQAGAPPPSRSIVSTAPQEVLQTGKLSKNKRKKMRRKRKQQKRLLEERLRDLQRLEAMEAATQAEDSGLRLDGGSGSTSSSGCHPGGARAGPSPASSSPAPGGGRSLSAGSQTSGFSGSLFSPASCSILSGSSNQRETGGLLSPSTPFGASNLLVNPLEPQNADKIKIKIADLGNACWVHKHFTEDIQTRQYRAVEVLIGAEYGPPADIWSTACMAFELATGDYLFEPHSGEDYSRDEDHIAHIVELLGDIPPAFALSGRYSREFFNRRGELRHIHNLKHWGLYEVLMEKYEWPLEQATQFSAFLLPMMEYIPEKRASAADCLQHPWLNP

T1 sequence (P42684 whole entry): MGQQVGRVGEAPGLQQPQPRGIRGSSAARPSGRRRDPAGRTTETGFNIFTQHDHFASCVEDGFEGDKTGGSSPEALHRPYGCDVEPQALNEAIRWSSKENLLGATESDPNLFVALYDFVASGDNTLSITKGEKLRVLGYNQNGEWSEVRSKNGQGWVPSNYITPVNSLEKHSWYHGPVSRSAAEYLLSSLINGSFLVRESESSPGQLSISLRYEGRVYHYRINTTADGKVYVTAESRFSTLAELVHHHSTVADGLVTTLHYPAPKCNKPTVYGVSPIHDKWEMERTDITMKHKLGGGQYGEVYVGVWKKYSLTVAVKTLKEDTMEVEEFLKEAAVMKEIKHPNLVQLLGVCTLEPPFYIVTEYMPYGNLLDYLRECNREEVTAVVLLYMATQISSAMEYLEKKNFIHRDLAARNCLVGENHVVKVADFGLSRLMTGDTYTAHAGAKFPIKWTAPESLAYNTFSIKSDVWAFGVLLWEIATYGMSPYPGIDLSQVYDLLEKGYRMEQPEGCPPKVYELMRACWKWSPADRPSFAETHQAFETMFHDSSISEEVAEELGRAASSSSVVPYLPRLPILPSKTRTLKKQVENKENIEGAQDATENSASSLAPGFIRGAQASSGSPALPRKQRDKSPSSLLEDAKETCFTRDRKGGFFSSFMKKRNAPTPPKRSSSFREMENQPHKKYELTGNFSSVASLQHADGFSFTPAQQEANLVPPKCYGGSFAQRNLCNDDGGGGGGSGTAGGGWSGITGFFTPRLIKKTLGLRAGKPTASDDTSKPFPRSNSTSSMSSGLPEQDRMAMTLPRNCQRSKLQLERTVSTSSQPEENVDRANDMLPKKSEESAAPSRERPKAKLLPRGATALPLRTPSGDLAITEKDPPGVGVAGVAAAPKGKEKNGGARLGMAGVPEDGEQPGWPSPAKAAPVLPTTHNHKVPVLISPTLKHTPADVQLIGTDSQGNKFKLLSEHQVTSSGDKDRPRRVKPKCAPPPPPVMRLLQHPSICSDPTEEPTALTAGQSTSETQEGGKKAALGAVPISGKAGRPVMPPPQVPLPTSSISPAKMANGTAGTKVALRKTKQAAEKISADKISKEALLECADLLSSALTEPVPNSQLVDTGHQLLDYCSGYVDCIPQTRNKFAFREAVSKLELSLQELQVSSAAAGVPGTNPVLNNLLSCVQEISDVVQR
Mitogen-activated protein kinase kinase kinase 8, sequence (P41279 whole entry): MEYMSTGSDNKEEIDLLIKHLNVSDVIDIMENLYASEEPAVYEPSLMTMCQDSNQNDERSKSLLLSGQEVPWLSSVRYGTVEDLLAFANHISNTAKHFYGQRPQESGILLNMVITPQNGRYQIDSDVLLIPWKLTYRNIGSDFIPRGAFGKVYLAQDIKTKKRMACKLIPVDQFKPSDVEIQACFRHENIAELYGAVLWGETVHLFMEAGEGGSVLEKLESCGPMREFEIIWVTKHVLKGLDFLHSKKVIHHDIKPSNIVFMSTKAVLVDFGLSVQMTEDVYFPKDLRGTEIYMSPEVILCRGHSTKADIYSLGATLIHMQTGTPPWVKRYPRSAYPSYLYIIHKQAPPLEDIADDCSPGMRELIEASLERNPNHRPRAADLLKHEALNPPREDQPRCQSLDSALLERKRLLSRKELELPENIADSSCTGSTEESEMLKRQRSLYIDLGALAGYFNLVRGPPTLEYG
TGF-beta receptor type-2 (Homo sapiens), sequence (P37173 whole entry): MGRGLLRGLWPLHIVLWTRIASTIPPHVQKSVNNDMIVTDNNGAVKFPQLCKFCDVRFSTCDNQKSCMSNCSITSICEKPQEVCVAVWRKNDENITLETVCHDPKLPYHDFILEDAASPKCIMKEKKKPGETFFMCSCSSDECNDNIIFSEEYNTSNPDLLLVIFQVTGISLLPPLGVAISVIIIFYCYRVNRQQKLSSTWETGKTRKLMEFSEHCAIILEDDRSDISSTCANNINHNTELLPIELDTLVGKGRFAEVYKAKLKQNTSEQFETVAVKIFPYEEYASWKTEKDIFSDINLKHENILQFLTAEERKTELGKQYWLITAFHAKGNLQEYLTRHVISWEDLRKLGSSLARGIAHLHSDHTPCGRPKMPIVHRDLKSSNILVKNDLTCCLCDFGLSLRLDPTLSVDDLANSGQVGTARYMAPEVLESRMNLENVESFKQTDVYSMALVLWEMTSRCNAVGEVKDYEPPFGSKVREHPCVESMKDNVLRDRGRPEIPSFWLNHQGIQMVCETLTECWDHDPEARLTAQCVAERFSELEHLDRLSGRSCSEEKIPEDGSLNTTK
Mitogen-activated protein kinase kinase kinase kinase 5 (Homo sapiens), sequence (Q9Y4K4 whole entry, looked up): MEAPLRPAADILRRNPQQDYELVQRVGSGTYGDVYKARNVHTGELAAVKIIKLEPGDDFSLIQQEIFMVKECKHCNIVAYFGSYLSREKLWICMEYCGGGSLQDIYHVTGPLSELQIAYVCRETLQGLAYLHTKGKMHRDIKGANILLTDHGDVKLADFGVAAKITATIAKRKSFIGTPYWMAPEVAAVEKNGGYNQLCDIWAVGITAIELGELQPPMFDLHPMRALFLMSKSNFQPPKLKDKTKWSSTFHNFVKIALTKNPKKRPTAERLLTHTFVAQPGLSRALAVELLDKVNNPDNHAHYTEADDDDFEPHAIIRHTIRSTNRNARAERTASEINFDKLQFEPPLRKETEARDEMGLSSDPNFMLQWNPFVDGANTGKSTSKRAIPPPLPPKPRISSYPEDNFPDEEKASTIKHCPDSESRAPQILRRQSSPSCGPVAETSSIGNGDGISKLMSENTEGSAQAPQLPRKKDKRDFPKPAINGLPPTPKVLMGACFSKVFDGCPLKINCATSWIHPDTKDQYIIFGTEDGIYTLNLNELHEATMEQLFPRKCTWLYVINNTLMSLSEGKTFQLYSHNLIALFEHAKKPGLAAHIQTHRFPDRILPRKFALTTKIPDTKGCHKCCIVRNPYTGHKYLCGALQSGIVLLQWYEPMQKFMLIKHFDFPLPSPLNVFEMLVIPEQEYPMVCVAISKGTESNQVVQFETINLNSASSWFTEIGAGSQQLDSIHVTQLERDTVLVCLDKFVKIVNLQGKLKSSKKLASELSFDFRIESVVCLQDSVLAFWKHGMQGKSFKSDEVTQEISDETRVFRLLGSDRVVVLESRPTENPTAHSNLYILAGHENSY

`O=C(NOC[C@H](O)CO)c1ccc(F)c(F)c1Nc1ccc(I)cc1F` gave a % of control [1] of 90%.

In the case of `Nc1cnc(N2CCc3cc(S(=O)(=O)Nc4c(F)cc(Cl)cc4F)cc(N4CCCC4=O)c32)nc1` [TP-020n], the % of control [2] is reported as 95%.

For `CC[C@@H]1[C@H](F)C(=O)N[C@@H]1COc1nccc2cc(C(N)=O)c(OC)cc12` [ZIMLOVISERTIB], the % of inhibition [3] was 24.9%, the % of inhibition [4] was 10% and the % of inhibition [5] was 25.7%.

`O[C@H]1CC[C@H](Nc2ncc3nc(Nc4c(F)cc(F)cc4F)n([C@H]4CCOC4)c3n2)CC1` showed a % of control [6] of 71%.

For `Cc1cc([C@@H](C)Nc2ccccc2C(=O)O)c2nc(N3CCOCC3)cc(=O)n2c1` [AZD-6482], the % of control [7] was 90%.

For `Cn1cc(-n2cnc3c(NCc4nc5cc(Cl)c(Cl)cc5[nH]4)nc(N4CCOCC4)nc32)cn1`, the % of control [8] was -1.19%.

`C=CC(=O)Nc1cccc(C(=O)Nc2ccc(Nc3cc(-c4[nH]c(SC)nc4C)ccn3)cc2)c1` gave a % of control ([9]; at 1 µM) of 97% and a % of control ([9]; at 5 µM) of 101%.
